Our source for the IC50 and fold induction values is patent publication US20220324835A1 (Nurix Therapeutics, Inc., priority 2018, published 2022).

Assay [1] concerns the target T1, Cbl-b (Homo sapiens, UniProt Q13191). The assay can be described thus: Cbl-b inhibition assay (Cbl-b activity assay, FRET, Biological Example 1; 100 mM NaCl, 60 nM Src kinase). The format is biochemical. Particulars: upper bound stated in text lists; read-out: IC50 values in the Cbl-b inhibition assay of Biological Example 1. An outline of the steps:
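Binding-based Cbl-b activity assay. Src-phosphorylated, N-terminally biotin-Avi-tagged Cbl-b recruits labelled UbcH5B-Ub, and proximity to streptavidin-terbium yields FRET.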

The test system of assay [2] is T-cell. The assay can be described thus: IL-2 secretion from T-cells co-stimulated with anti-CD3 and anti-CD28 antibody (Biological Example 2). Type of assay: cell-based, human. Particulars: Homo sapiens, T-cell, primary human total T-cells, baseline = anti-CD3/anti-CD28 stimulated cells without inhibitor, read-out: IL-2 secretion, Anti-CD3/Anti-CD28 stimulation, fold change over baseline; for fold induction at 0.3 µM: 0.3 μM compound; for fold induction at 1 µM: 1 μM compound. An outline of the steps:
(§1)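 T-cells were stimulated with anti-CD3 antibody alone or with anti-CD28 antibody, in the presence or absence of Cbl-b inhibitor. IL-2 secretion or CD25 surface staining was measured, and values expressed as fold over the uninhibited baseline […].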

Assay [3] concerns T-cell. The assay can be described thus: CD25 cell surface staining on T-cells stimulated with anti-CD3 antibody alone (Biological Example 2). Type of assay: cell-based. Particulars: 1 μM compound, primary human total T-cells, baseline = anti-CD3/anti-CD28 stimulated cells without inhibitor, read-out: CD25 staining, Anti-CD3 stimulation, fold change over baseline.
Assay [4] deals with T-cell. The assay can be described thus: CD25 cell surface staining on T-cells co-stimulated with anti-CD3 and anti-CD28 antibody (Biological Example 2). The format is cell-based, human. Particulars: Homo sapiens, T-cell, primary human total T-cells, baseline = anti-CD3/anti-CD28 stimulated cells without inhibitor, read-out: CD25 staining, Anti-CD3/Anti-CD28 stimulation, fold change over baseline; for fold induction at 0.3 µM: 0.3 μM compound; for fold induction at 1 µM: 1 μM compound. Put shortly:
as §1

Assay [5] deals with T1, Cbl-b. The assay can be described thus: Cbl-b activity assay (Cbl-b inhibition assay), TR-FRET of Cbl-b interaction with UbcH5B-Ub. The format is biochemical. To be noted: assay buffer with 100 mM NaCl, 60 nM Src kinase; read-out: Cbl-b activity IC50. An outline of the steps: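 UbcH5B (C85K) conjugated to N-terminally Bodipy-Fluorescein-labeled ubiquitin served as the fluorescent partner. After compound preincubation, Src kinase (60 nM) with 1 mM ATP and 5 mM MgCl2 (final) was added for 1.5 h, followed by a further 1 h incubation. Some values were obtained with 50 mM NaCl and 30 nM Src.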
A general note: TR-FRET usually uses a lanthanide donor and a delayed reading to cut background.

Assay [6] has as its system T-cell. The assay can be described thus: IL-2 secretion from T-cells stimulated with anti-CD3 antibody alone (Biological Example 2). Type of assay: cell-based. To be noted: 1 μM compound, primary human total T-cells, read-out: IL-2 secretion, Anti-CD3 stimulation, fold change over baseline.

T1 sequence (Q13191 36-427): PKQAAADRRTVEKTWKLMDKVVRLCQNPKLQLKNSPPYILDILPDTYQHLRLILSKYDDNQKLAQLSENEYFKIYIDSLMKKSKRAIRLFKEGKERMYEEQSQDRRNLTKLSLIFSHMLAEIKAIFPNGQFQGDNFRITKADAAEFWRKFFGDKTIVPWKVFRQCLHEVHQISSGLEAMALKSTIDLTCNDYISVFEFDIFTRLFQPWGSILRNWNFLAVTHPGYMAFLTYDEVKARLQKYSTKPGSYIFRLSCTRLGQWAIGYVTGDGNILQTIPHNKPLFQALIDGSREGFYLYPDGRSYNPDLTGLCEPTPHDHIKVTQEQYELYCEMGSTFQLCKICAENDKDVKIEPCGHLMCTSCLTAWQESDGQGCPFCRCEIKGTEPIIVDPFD

A word on the IC50: it is the concentration that gives 50% inhibition. Consider `Cn1cnnc1CC1(c2cccc(NC(=O)c3cc(OC(F)F)cc(C4CC4)n3)c2)COC1` [Compound 502, 6-cyclopropyl-4-(difluoromethoxy)-N-(3-{3-[(4-methyl-1,2,4-triazol-3-yl)methyl]oxetan-3-yl}phenyl)pyridine-2-carboxamide], for which the values for the IC50 in assay [1] and in assay [5] were not above 0.1 µM and less than 0.1 µM, respectively. Further, the fold induction at 0.3 µM in assay [2] was in the range of 5 to 7.5; in assay [4] it was 1.01 to 1.3. Besides, the fold induction at 1 µM in assay [2] is more than 7.5; in assay [3], more than 1; in assay [4], 1.01 to 1.3; in assay [6], more than 0.201.

With `CN(C)Cc1cc(C(=O)Nc2cccc(C3(Cc4nncn4C)COC3)c2)nc(C2CC2)n1` [Compound 503, 2-cyclopropyl-6-[(dimethylamino)methyl]-N-(3-{3-[(4-methyl-1,2,4-triazol-3-yl)methyl]oxetan-3-yl}phenyl)pyrimidine-4-carboxamide], the IC50 in assay [1] is not above 0.1 µM; in assay [5], less than 0.1 µM. Moreover, the fold induction at 0.3 µM was in the range of 2.51 to 5 in assay [2] and 1.31 to 1.5 in assay [4]. Moreover, the fold induction at 1 µM was more than 7.5 in assay [2], more than 1 in assay [3], 1.31 to 1.5 in assay [4] and 0.101 to 0.15 in assay [6].

Consider `Cn1cnnc1CC1(c2cccc(NC(=O)c3cc(CN4CCC4)nc(C4CC4)n3)c2)COC1` [Compound 504, 6-(azetidin-1-ylmethyl)-2-cyclopropyl-N-(3-{3-[(4-methyl-1,2,4-triazol-3-yl)methyl]oxetan-3-yl}phenyl)pyrimidine-4-carboxamide], for which the IC50 in assay [1] was not above 0.1 µM; in assay [5], less than 0.1 µM. Also, the values for the fold induction at 0.3 µM in assay [2] and in assay [4] were 2.51 to 5 and 1.01 to 1.3, respectively. The fold induction at 1 µM in assay [2] fell in the range of 5 to 7.5; in assay [3] it was 0.801 to 1; in assay [4] it was 1.31 to 1.5; in assay [6], 0.051 to 0.1.

Consider `Cn1cnnc1CC1(c2cccc(NC(=O)c3cc(CN4CC[C@H](O)C4)nc(C4CC4)n3)c2)COC1` [Compound 505, 2-cyclopropyl-6-{[(3S)-3-hydroxypyrrolidin-1-yl]methyl}-N-(3-{3-[(4-methyl-1,2,4-triazol-3-yl)methyl]oxetan-3-yl}phenyl)pyrimidine-4-carboxamide], for which the IC50 was not above 0.1 µM in assay [1] and less than 0.1 µM in assay [5]. The fold induction at 0.3 µM in assay [2] is 1.01 to 2.5; in assay [4] it was 1.01 to 1.3. For the same compound, the fold induction at 1 µM was 2.51 to 5 in assay [2], 0.601 to 0.8 in assay [3], 1.01 to 1.3 in assay [4] and 0.051 to 0.1 in assay [6].

Turning to `Cc1conc1CC1(c2cccc(NC(=O)c3cc(CN4CC[C@H](O)C4)nc(C4CC4)n3)c2)COC1` [Compound 507, 2-cyclopropyl-6-{[(3S)-3-hydroxypyrrolidin-1-yl]methyl}-N-(3-{3-[(4-methyl-1,2-oxazol-3-yl)methyl]oxetan-3-yl}phenyl)pyrimidine-4-carboxamide], the results for the IC50 in assay [1] and in assay [5] were not above 0.1 µM and less than 0.1 µM, respectively. Besides, the fold induction at 0.3 µM in assay [2] is more than 7.5; in assay [4], 1.31 to 1.5. The fold induction at 1 µM in assay [2] was more than 7.5; in assay [3], more than 1; in assay [4], 1.31 to 1.5; in assay [6], more than 0.201.

For the compound `Cc1conc1CC1(c2cccc(NC(=O)c3cc(CN4CCC5(CC5)C4)nc(C4CC4)n3)c2)COC1` [Compound 508, 6-{5-azaspiro[2.4]heptan-5-ylmethyl}-2-cyclopropyl-N-(3-{3-[(4-methyl-1,2-oxazol-3-yl)methyl]oxetan-3-yl}phenyl)pyrimidine-4-carboxamide], the IC50 is not above 0.1 µM in assay [1] and less than 0.1 µM in assay [5]. For the same compound, the fold induction at 0.3 µM in assay [2] was more than 7.5; in assay [4], 1.31 to 1.5. In addition, the fold induction at 1 µM in assay [2] is more than 7.5; in assay [3], more than 1; in assay [4] it was 1.31 to 1.5; in assay [6], more than 0.201.
